How the values were obtained:
[1] = biological target: T1, CSF1R kinase (recombinant N-terminal GST-CSF1R, residues L534-C972) (Homo sapiens, UniProt P07333); experiment: CSF1R Kinase-Glo assay; type: biochemical; details: 40 μM ATP, 30° C. 180 min, read-out: Enzymatic Assay CSF1R enzyme IC50
T1 construct: Recombinant N-terminal GST-CSF1R (CSF1R residues L534-C972) containing the CSFIR kinase domain; made in house; host or cells: Sf9 insect cells
T1 sequence (P07333 534-972): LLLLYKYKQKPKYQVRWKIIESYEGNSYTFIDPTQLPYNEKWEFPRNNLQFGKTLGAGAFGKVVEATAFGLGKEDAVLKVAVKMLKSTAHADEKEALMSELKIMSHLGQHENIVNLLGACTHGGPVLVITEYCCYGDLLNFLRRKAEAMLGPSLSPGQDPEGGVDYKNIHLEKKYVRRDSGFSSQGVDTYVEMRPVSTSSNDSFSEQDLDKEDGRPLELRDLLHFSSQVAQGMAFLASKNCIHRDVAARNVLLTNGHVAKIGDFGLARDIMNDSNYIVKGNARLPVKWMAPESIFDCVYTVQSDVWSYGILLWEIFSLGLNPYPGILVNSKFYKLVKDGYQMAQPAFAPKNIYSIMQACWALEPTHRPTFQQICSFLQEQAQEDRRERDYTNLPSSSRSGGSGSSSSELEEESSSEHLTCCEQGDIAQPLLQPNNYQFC
Description: A study was conducted to test certain compounds described in EXAMPLE 1 in inhibiting CSF1R kinase activity.
Activity of CSF1R kinase was determined using a CSF1R Kinase-Glo assay. Recombinant N-terminal GST-CSF1R (CSF1R residues L534-C972) containing the CSFIR kinase domain was expressed in Sf9 insect cells and purified. The kinase assay was carried out in 96-well plates at 30° C. for 180 min with the tested compounds in a final volume of 50 μl including the following components: 25 mM Tris-HCl pH 7.4, 4 mM MnCl2, 10 mM MgCl2, 0.01% BSA, 0.5 mM NA3VO4, 0.02% Triton X-100, 40 μM ATP, 2 mM DTT and 20 μM poly(Glu,Tyr) 4:1 peptide, and 600 ng recombinant GST-CSF1R. Following incubation, 50 μl Kinase-Glo Plus Reagent (Promega, Madison, WI, USA) was added and the mixture was incubated at 25° C. for 20 min. A 70-μL aliquot of each reaction mixture was transferred to a black microtiter plate and luminescence was measured on Wallac Vector 1420 multilabel counter (PerkinElmer, Shelton, CT, USA). Percentage inhibition values were obtained by comparison of reaction rate with the rates in control wells (i.e., in the absence of test compound). IC50 values were calculated from a series of percentage inhibition values determined at a range of test compound concentrations using GraphPad Prism version 6 software (GraphPad, San Diego, CA, USA).

M-NFS-60 cells = experiment: MTS cell viability assay, M-NFS-60; type: cell-based; details: 72 h, read-out: Cellular Proliferation Assay M-NFS-60 (nM) GI50
Description: (§1) Studies were conducted to evaluate […] anticancer activity of certain compounds described in EXAMPLE 1 using 3-(4,5-dimethylthiazol-2-yl)-5-(3-carboxymethoxyphenyl)-2-(4-sulfophenyl)-2H-tetrazolium) (MTS) cell viability assays. Results from these studies are shown in Table 2 below (see columns 3 and 4).
(§2) The cell lines M-NFS-60 (ATCC® CRL-1838™) and BaF3-CSF1R-1600 were obtained from American Type Culture Collection (ATCC, Manassas, VA, USA). The stable BaF3-CSF1R-1600 cell line expresses ETV6-CSF1R fusion protein consisting of N-terminal ETS-variant gene 6 protein (ETV6 residues M1-G337) and CSF1R tyrosine kinase (CSF1R residues L533-C972). The M-NSF-60 and BaF3-CSF1R-1600 cells were cultured in RPMI1640 medium supplemented with 10% fetal bovine serum, 0.05 mM 2-ME, 10 U/ml penicillin, and 10 µg/ml streptomycin at 37° C. and 5% CO2.
(§3) M-NFS-60 and BaF3-CSF1R-1600 cells were seeded in 96-well plates at a density of 10000 cells/100 μl and 8000 cells/100 μl per well, respectively, for 16 h and treated with vehicle or various concentrations of test compounds in medium for 72 h. Viable cells were quantified using the MTS method (Promega, Madison, WI, USA) according to manufacturer's recommended protocol. The results were determined by measuring absorbance at 490 nm using a plate reader (Victor 2). The GI50 value was defined as the amount of compound that caused 50% reduction in cell viability in comparison with DMSO-treated (vehicle) control and was calculated using Prism GraphPad Prism version 6 software (GraphPad).

[2] = tested on: BaF3-CSF1R-1600 cells (express ETV6-CSF1R fusion protein); experiment: MTS cell viability assay, BaF3-CSF1R-1600; type: cell-based; details: 72 h, read-out: Cellular Proliferation Assay BaF3-CSF1R GI50
Description: as §1, §2, §3

Row | IC50 [1] [µM] | GI50 [2] [µM] | SMILES | GI50 (M-NFS-60 cells) [nM]
1 | 0.02 to 0.1 | 0.02 to 0.1 | COc1ccc(Cl)cc1NC(=O)Nc1ccc(Oc2ncnc3cc(N(C)C)ccc23)cc1 [Compound 104] | 100 to 1000
2 | 0.02 to 0.1 | 0.02 to 0.1 | COc1ccc(NC(=O)Nc2ccc(Oc3ncnc4cc(N(C)C)ccc34)cc2)cc1Cl [Compound 105] | 20 to 100
3 | < 0.02 | > 1 | CN(C)c1ccc2c(Oc3ccc(NC(=O)Nc4ccc(F)cc4)cc3)ncnc2c1 [Compound 106] | 100 to 1000
4 | 0.02 to 0.1 | 0.02 to 0.1 | COCCN1CCN(c2ccc3c(Oc4ccc(NC(=O)NCc5ccc(C(F)(F)F)nc5)cc4)ncnc3c2)CC1 [Compound 108] | 20 to 100

— patent US12668584B2, “Heterocyclic compounds as kinase inhibitors for therapeutic uses” (National Health Research Institutes, priority 2019, dated 2026)
